Like-named read-outs stand apart in the source and are kept apart here. Marks after values point to notes of the source that are not given here.
Legend:
CYP3A4 = CYP3A4 Induction in Human Hepatocytes; assay type: in vitro ADME
Procedure: (§1) CYP activity was determined by monitoring metabolite formation of specific CYP probe substrates (phenacetin for CYP1A2 and testosterone for CYP3A4) using LC-MS/MS. CYP messenger ribonucleic acid (mRNA) was analyzed by RT-PCR to confirm CYP induction potential.

[1] = Oral pharmacokinetics / bioavailability; assay type: in vivo; conditions: single oral; for AUC / AUC(0-inf) / Cmax / MRT / Tmax / half-life: in vivo
From the text: The bioavailability in monkey (greater than 100%) may be explained by the tenfold difference between the IV and oral doses. Compound 1 was rapidly absorbed in all species, with maximum systemic concentration observed within approximately one to three hours of dosing.

CYP1A2 = CYP1A2 Induction in Human Hepatocytes; assay type: in vitro ADME
Procedure: as §1

HUVECs = experiment: HUVEC Proliferation Assay; assay type: cell-based, human; conditions: for IC50: Homo sapiens, HUVEC
Procedure: PI3Ks are important signaling molecules downstream of a number of growth factors that regulate cell survival, growth and cell cycle entry. Both PI3K-alpha and PI3K-beta isoforms regulate cell cycle entry; inhibition of either isoform leads to reduced cell growth. HUVECs are primary human umbilical vein endothelial cells which express both the PI3Kα and PI3Kβ isoforms. Inhibition of either or both PI3K-alpha or PI3K-beta isoforms will inhibit the cell growth of HUVECs. Compounds are plated onto HUVECs, cell proliferation/viability is measure 96 hours post compound treatment using cell titer-glo to measure the ATP content of the cells in the well. Lack of or reduced proliferation is a measure of the extent of PI3K-alpha and/or PI3K-beta inhibition.

CD40 induced colitis = CD40 induced colitis (IBD) model, body weight loss; assay type: in vivo, mouse
Procedure: The PI3Kγ inhibitor, Compound 1, was tested in a CD40 induced colitis model to determine its effect on disease course. The CD40 model of IBD is induced by injecting an anti-CD40 monoclonal antibody (agonist, i.e., activating antibody versus neutralizing antibody) into T and B cell deficient mice (Rag 1−/− mice) to induce both systemic and intestinal inflammation that leads to colitis and wasting disease via the innate immune pathway. (See, e.g., Immunity 25, 309-318, August 2006). Briefly, Rag1 knock-out mice were injected IP with the anti-CD40 monoclonal antibody FGK45. Starting on Day 0, mice were treated with PBS, vehicle or Compound 1 at 5 mg/kg b.i.d. or 10 mg/kg b.i.d. Compound 1 was administered IP for 7 days on a 10/14-hour b.i.d. dosing regimen. Compound 1 was formulated in 5% NMP/15% PEG-400/80% in a 0.5% HPMC-E50 solution in water. At study termination, serum and colon samples were collected at 2 hours following the last dose for drug concentration analysis. Body weights were measured daily during the study. Compound 1 concentrations were analyzed in the plasma samples collected 2 hours following the final dose at study termination. Concentrations were determined using a high performance liquid chromatography/tandem mass spectrometry (HPLC/MS/MS) method.

[2] = all three hepatocyte lots, 48 hour exposure
[3] = Dog, 3 mg/kg nominal, spray-dried dispersion
[4] = Monkey, 5 mg/kg nominal, spray-dried dispersion
[5] = Mouse, 1 mg/kg nominal, 0.2% MC/1% SLS

Cc1cc(-c2cncc([C@@H](O)C(F)(F)F)c2)nc2c1C(=O)N(c1cnn(CC(F)F)c1)C2(C)C [Compound 1, (R)-6-(1-(2,2-difluoroethyl)-1H-pyrazol-4-yl)-4,7,7-trimethyl-2-(5-(2,2,2-trifluoro-1-hydroxyethyl)pyridin-3-yl)-6,7-dihydro-5H-pyrrolo[3,4-b]pyridin-5-one]
CYP3A4 mRNA message (CYP3A4; 0.5 μM, lot 8123): 0.4 fold change
Testosterone-6β-Hydroxylation (CYP3A4; 0.5 μM, lot 8123): 0.3 fold change
CYP3A4 mRNA message (CYP3A4; 0.5 μM, lot LMP): 1.0 fold change
Testosterone-6β-Hydroxylation (CYP3A4; 0.5 μM, lot LMP): 0.9 fold change
CYP3A4 mRNA message (CYP3A4; 0.5 μM, lot YOW): 1.3 fold change
Testosterone-6β-Hydroxylation (CYP3A4; 0.5 μM, lot YOW): 1.0 fold change
CYP3A4 mRNA message (CYP3A4; 1.0 μM, lot 8123): 0.3 fold change
Testosterone-6β-Hydroxylation (CYP3A4; 1.0 μM, lot 8123): 0.5 fold change
CYP3A4 mRNA message (CYP3A4; 1.0 μM, lot LMP): 0.7 fold change
Testosterone-6β-Hydroxylation (CYP3A4; 1.0 μM, lot LMP): 0.8 fold change
CYP3A4 mRNA message (CYP3A4; 1.0 μM, lot YOW): 0.2 fold change
Testosterone-6β-Hydroxylation (CYP3A4; 1.0 μM, lot YOW): 0.8 fold change
CYP3A4 mRNA message (CYP3A4; 5.0 μM, lot 8123): 0.5 fold change
Testosterone-6β-Hydroxylation (CYP3A4; 5.0 μM, lot 8123): 0.4 fold change
CYP3A4 mRNA message (CYP3A4; 5.0 μM, lot LMP): 1.1 (1.1) fold change
Testosterone-6β-Hydroxylation (CYP3A4; 5.0 μM, lot LMP): 1.1 (1.1) fold change
Testosterone-6β-Hydroxylation (CYP3A4; 5.0 μM, lot YOW): 0.9 (NR^1) fold change
CYP3A4 mRNA message (CYP3A4; 10.0 μM, lot 8123): 1.1 fold change
Testosterone-6β-Hydroxylation (CYP3A4; 10.0 μM, lot 8123): 0.4 fold change
CYP3A4 mRNA message (CYP3A4; 10.0 μM, lot LMP): 1.5 fold change
Testosterone-6β-Hydroxylation (CYP3A4; 10.0 μM, lot LMP): 1.1 fold change
Testosterone-6β-Hydroxylation (CYP3A4; 10.0 μM, lot YOW): 0.8 (NR^1) fold change
CYP3A4 mRNA message (CYP3A4; 20.0 μM, lot 8123): 0.7 fold change
Testosterone-6β-Hydroxylation (CYP3A4; 20.0 μM, lot 8123): 0.6 fold change
CYP3A4 mRNA message (CYP3A4; 20.0 μM, lot LMP): 3.0 fold change
Testosterone-6β-Hydroxylation (CYP3A4; 20.0 μM, lot LMP): 1.4 fold change
Testosterone-6β-Hydroxylation (CYP3A4; 20.0 μM, lot YOW): 0.6 (NR^1) fold change
Testosterone-6β-Hydroxylation (CYP3A4; 30.0 μM, lot 8123): 0.7 (NR^2) fold change
CYP3A4 mRNA message (CYP3A4; 30.0 μM, lot LMP): 2.5 fold change
Testosterone-6β-Hydroxylation (CYP3A4; 30.0 μM, lot LMP): 1.0 fold change
Testosterone-6β-Hydroxylation (CYP3A4; 30.0 μM, lot YOW): 0.6 (NR^1) fold change
change in CYP3A4 activity and mRNA levels, % of the positive control (CYP3A4; [2]): less than 20%
DN_AUCINF [1, 3]: 3100 ng·h/mL
F ([1]; Dog, 3 mg/kg nominal, spray-dried dispersion, 3 mg/kg): 77%
DN_AUCINF [1, 4]: 2500 ng·h/mL
DN_AUCINF [1, 5]: 2760 ng·h/mL
F ([1]; Mouse, 1 mg/kg nominal, 0.2% MC/1% SLS, 1 mg/kg): 81%
AUC [1, 3]: 9110 ng·h/mL
AUC(0-inf) [1, 3]: 9290 ng·h/mL
Cmax [1, 3]: 1290 ng/mL
MRT [1, 3]: 9 h
Tmax [1, 3]: 0.83 h
half-life [1, 3]: 7.3 h
AUC [1, 4]: 12300 ng·h/mL
AUC(0-inf) [1, 4]: 12500 ng·h/mL
Cmax [1, 4]: 1350 ng/mL
MRT [1, 4]: 10.5 h
Tmax [1, 4]: 1.67 h
half-life [1, 4]: 8.5 h
AUC [1, 5]: 2720 ng·h/mL
AUC(0-inf) [1, 5]: 2760 ng·h/mL
Cmax [1, 5]: 290 ng/mL
MRT [1, 5]: 5.8 h
Tmax [1, 5]: 2 h
half-life [1, 5]: 3.8 h
CYP1A2 mRNA message (CYP1A2; 0.5 μM, lot 8123): 0.6 (0.6)* fold change
Phenacetin O-Dealkylation (CYP1A2; 0.5 μM, lot 8123): 0.6 (0.6)* fold change
CYP1A2 mRNA message (CYP1A2; 0.5 μM, lot LMP): 0.6 fold change
Phenacetin O-Dealkylation (CYP1A2; 0.5 μM, lot LMP): 0.7 fold change
CYP1A2 mRNA message (CYP1A2; 0.5 μM, lot YOW): 0.5 fold change
Phenacetin O-Dealkylation (CYP1A2; 0.5 μM, lot YOW): 1.1 fold change
CYP1A2 mRNA message (CYP1A2; 1.0 μM, lot 8123): 0.5 (0.5) fold change
Phenacetin O-Dealkylation (CYP1A2; 1.0 μM, lot 8123): 0.5 (0.5) fold change
CYP1A2 mRNA message (CYP1A2; 1.0 μM, lot LMP): 0.6 fold change
Phenacetin O-Dealkylation (CYP1A2; 1.0 μM, lot LMP): 0.8 fold change
CYP1A2 mRNA message (CYP1A2; 1.0 μM, lot YOW): 0.4 fold change
Phenacetin O-Dealkylation (CYP1A2; 1.0 μM, lot YOW): 1.1 fold change
CYP1A2 mRNA message (CYP1A2; 5.0 μM, lot 8123): 0.5 fold change
Phenacetin O-Dealkylation (CYP1A2; 5.0 μM, lot 8123): 0.8 fold change
CYP1A2 mRNA message (CYP1A2; 5.0 μM, lot LMP): 0.7 fold change
Phenacetin O-Dealkylation (CYP1A2; 5.0 μM, lot LMP): 0.9 fold change
CYP1A2 mRNA message (CYP1A2; 5.0 μM, lot YOW): 0.6 fold change
Phenacetin O-Dealkylation (CYP1A2; 5.0 μM, lot YOW): 1.1 fold change
CYP1A2 mRNA message (CYP1A2; 10.0 μM, lot 8123): 1.2 fold change
Phenacetin O-Dealkylation (CYP1A2; 10.0 μM, lot 8123): 0.7 fold change
CYP1A2 mRNA message (CYP1A2; 10.0 μM, lot LMP): 0.8 fold change
Phenacetin O-Dealkylation (CYP1A2; 10.0 μM, lot LMP): 1.0 fold change
CYP1A2 mRNA message (CYP1A2; 10.0 μM, lot YOW): 1.3 fold change
Phenacetin O-Dealkylation (CYP1A2; 10.0 μM, lot YOW): 1.2 fold change
CYP1A2 mRNA message (CYP1A2; 20.0 μM, lot 8123): 2.6 fold change
Phenacetin O-Dealkylation (CYP1A2; 20.0 μM, lot 8123): 1.2 fold change
CYP1A2 mRNA message (CYP1A2; 20.0 μM, lot LMP): 0.7 fold change
Phenacetin O-Dealkylation (CYP1A2; 20.0 μM, lot LMP): 1.1 fold change
CYP1A2 mRNA message (CYP1A2; 20.0 μM, lot YOW): 0.8 fold change
Phenacetin O-Dealkylation (CYP1A2; 20.0 μM, lot YOW): 1.3 fold change
Phenacetin O-Dealkylation (CYP1A2; 30.0 μM, lot 8123): 1.3 (NR^2) fold change
CYP1A2 mRNA message (CYP1A2; 30.0 μM, lot LMP): 1.4 fold change
Phenacetin O-Dealkylation (CYP1A2; 30.0 μM, lot LMP): 1.1 fold change
Phenacetin O-Dealkylation (CYP1A2; 30.0 μM, lot YOW): 1.5 (NR^2) fold change
change in CYP1A2 activity and mRNA levels, % of the positive control (CYP1A2; [2]): less than 20%
selectivity over PI3K-alpha/beta (HUVECs; HUVEC proliferation): > 74 fold
IC50 (HUVECs; 96 h, HUVEC Proliferation, 96 hours, PI3K-alpha/beta dependent, read-out: IC50 Avg +/− SD): > 19 µM
IC50 (HUVECs; footnote * of Table 4, no anchor in the table, read-out: Individual assay data (IC50)): > 20 µM
selectivity over PI3K-alpha and PI3K-beta in cell based assays (HUVECs; summary): 40-80 fold
body weight loss (FIG. 4) (CD40 induced colitis; 5 mg/kg b.i.d. IP, *p<0.05 d3, **p<0.01 d4, vs vehicle): significantly inhibited
body weight loss (FIG. 4) (CD40 induced colitis; 10 mg/kg b.i.d. IP, ***p<0.001 d3-4, vs vehicle): significantly inhibited

Reference: patent US10301304B2, “Selective inhibitor of phosphatidylinositol 3-kinase-gamma” (VERTEX PHARMACEUTICALS INCORPORATED, priority 2013, dated 2019)
